# Data from publication PMC4805082, “Seizure control by decanoic acid through direct AMPA receptor inhibition” (Brain, 2015).
# Like-named read-outs stand apart in the source and are kept apart here.
# What was measured:
# [1] = tested on: epileptiform activity (burst discharges) in hippocampal slices induced by low-Mg2+; test: In vitro seizure model, low-Mg2+ induced epileptiform activity in hippocampal slices; type: cell-based, rat; conditions: 1 mM; low magnesium
# Method: (§1) Male Sprague-Dawley rats (postnatal Days 19–30) were sacrificed using an overdose of isoflurane or pentobarbitone (500 mg/kg). After decapitation the brain was rapidly removed, the hippocampus or entorhinal cortex-hippocampus slices was dissected from the brain and […] thick transverse slices were prepared on a VT1200S vibratome (Leica) or Vibratome (Vibratome® 1500 sectioning system, Intracell). The slicing was performed in ice-cold sucrose-based solution containing (in mM): 75 sucrose, 87 NaCl, 22 glucose, 2.5 KCl, 7 MgCl2, 1.25 NaH2PO4, 0.5 CaCl2 and 25 NaHCO3, pH 7.4, 315–330 mOsm equilibrated with 95% O2 plus 5% CO2. The slices were then stored in a continuously oxygenated humidified interface holding chamber containing oxygenated artificial CSF (in mM): 120 NaCl, 22 glucose, 2.5 KCl, 1.3 MgSO4, 1 NaH2PO4, 25 NaHCO3 and 2.5 CaCl2, pH 7.4 296 mOsm, where they recovered for at least 1 h before use.
# During the experiment, slices were transferred from the interface chamber into a submerged recording chamber, designed to optimize wash-in and wash-out of drugs, and continuously perfused using gravity feed at 3–6 ml/min with prewarmed (36°C) oxygenated artificial CSF (95% O2, 5% CO2). Field potentials were recorded with a glass microelectrode (1–2 MΩ) filled with artificial CSF solution placed in stratum radiatum of CA1 and were filtered at 1 kHz and digitized at 2 kHz (using an npi EXT-02F extracellular amplifier recorded with WinEDR software). In the pentylenetetrazol model, the epileptiform (paroxysmal) activity was induced by application of pentylenetetrazol (2 mM) to the perfusate and [K^+] was increased (to 6 mM); in low-Mg^2+ model, the epileptiform activity was elicited by using Mg^2+-free artificial CSF. Once the frequency of the paroxysmal activity was stable for at least 10 min, compounds were applied to the perfusate for the following 40 min, and washed out for a remaining 20 min. The anticonvulsant effects were evaluated by measuring the change in the frequency of the discharges at minute intervals. […]
# [2] = tested on: GABAA receptor mediated IPSCs in hippocampal CA1 pyramidal neurons; test: Whole-cell patch clamp, evoked GABAA receptor mediated IPSCs in CA1 pyramidal cells; type: cell-based, rat; conditions: 300 µM
# Method: as §1, with “The slices were then stored in a continuously oxygenated humidified interface holding chamber containing oxygenated artificial CSF (in mM): 120 NaCl, 22 glucose, 2.5 KCl, 1.3 MgSO4, 1 NaH2PO4, 25 NaHCO3 and 2.5 CaCl2, pH 7.4 296 mOsm, where they recovered for at least 1 h before use.” left out
# For electrophysiological recording, the slices were placed in a recording chamber constantly perfused with 32–34°C oxygenated artificial CSF solution using a gravity-driven perfusion system. […] Series resistance was monitored throughout experiments using a −5 mV step command and cells showing a >20% change in series resistance, a series of resistance of >20 MΩ or an unstable holding current were rejected. […] Inhibitory postsynaptic current (IPSCs) were recorded in the presence of DL-APV (100 µM), NBQX (10 µM) and CGP55845 (5 µM) to block NMDA-, AMPA- and GABAB-receptors, respectively. […]
# [3] = molecular target: T1, AMPA receptor GluA2/3 (Homo sapiens, UniProt P42262+P42263); test: Two-electrode voltage clamp, AMPA receptor GluA2/3 expressed in Xenopus oocytes; type: cell-based
# T1 construct: expressed in transfected cells; host or cells: Xenopus laevis oocytes injected with cRNA (1:1 mix)
# Method: The AMPA receptor (flip isoform) cDNAs inserted in a SP6 polymerase expression vector (pSP6T) were a generous gift from Prof. Ralf Schoepfer (NPP, UCL). […] AMPA receptor cRNAs were mixed in a nominal 1:1 ratio and ∼5 ng was injected per oocyte.
# Xenopus laevis oocytes were purchased from the European Xenopus Resource Centre, University of Portsmouth. Stage V to VI oocytes were mechanically dissected and then subjected to gentle shaking for ∼30–50 min at room temperature with modified Barth’s solution (in mM): 88 NaCl, 1 KCl, 2.4 NaHCO3, 0.82 MgCl2, 0.77 CaCl2, 15 Tris-Cl, adjusted to pH 7.4 with NaOH (Sigma-Aldrich), supplemented with 50 IU/ml penicillin and 50 µg/ml streptomycin (Invitrogen) and 50 µg/ml tetracycline (Sigma-Aldrich) and 1% collagenase (type 1A). Healthy oocytes were manually defolliculated and the injections of cRNA for homomeric subunits alone (GluA1), or heteromeric mixtures of two subunits together (GluA1/GluA2 or GluA2/GluA3) were made using an automated Drummond Nanoinject II injector. The oocytes were then incubated at 17°C in modified Barth’s solution for at least 48 h before use in electrophysiological recordings.
# Experiments were performed at room temperature (∼21–23°C). […] Current and voltage electrodes were filled with 300 mM KCl and made from thin-walled borosilicate glass (GC150TF-7.5, Harvard Apparatus) using a PC-10 electrode puller (Narashige Instruments) and had resistances of 0.5–2 MΩ. […] Compounds were dissolved in distilled water or DMSO and dissolved in bathing solution to achieve their final concentrations during experiments, and were applied under gravity flow during the experiment by using a multi-valve perfusion system (VC3-8C, ALA Scientific Instruments). The bath solutions were perfused at a rate of 10 ml/min. […] Data acquisition was performed using the Windows PC-based program, WinEDR v3.0.6 (John Dempster, University of Strathclyde, UK).
# Statistical analysis was performed using ANOVA with Tukey post hoc test, paired t-test or unpaired t-test.
# T1 sequence (P42262 22-883 isoform P42262-2 limits assumed): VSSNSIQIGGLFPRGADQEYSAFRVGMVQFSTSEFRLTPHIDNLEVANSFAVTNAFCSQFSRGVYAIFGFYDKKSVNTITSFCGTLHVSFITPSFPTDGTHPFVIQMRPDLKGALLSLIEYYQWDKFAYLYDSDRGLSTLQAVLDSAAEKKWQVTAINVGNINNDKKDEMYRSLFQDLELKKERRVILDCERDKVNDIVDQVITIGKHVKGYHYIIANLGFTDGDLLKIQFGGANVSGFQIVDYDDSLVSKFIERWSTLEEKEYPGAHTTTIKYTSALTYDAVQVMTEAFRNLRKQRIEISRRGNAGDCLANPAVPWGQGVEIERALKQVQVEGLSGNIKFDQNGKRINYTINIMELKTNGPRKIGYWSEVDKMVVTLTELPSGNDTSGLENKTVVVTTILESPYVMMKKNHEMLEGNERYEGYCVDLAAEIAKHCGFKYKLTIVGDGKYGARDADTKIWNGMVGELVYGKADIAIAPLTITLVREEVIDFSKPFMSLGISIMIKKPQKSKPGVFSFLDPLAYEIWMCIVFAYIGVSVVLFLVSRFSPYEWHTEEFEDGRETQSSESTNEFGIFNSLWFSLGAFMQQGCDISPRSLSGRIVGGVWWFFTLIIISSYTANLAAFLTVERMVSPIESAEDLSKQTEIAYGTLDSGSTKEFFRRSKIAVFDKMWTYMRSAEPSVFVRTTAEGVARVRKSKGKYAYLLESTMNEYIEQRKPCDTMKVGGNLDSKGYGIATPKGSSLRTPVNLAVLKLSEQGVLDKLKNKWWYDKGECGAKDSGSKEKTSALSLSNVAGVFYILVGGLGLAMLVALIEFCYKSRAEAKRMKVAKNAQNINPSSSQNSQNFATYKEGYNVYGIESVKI
# T1 sequence (P42263 29-894 isoform P42263-2 limits assumed): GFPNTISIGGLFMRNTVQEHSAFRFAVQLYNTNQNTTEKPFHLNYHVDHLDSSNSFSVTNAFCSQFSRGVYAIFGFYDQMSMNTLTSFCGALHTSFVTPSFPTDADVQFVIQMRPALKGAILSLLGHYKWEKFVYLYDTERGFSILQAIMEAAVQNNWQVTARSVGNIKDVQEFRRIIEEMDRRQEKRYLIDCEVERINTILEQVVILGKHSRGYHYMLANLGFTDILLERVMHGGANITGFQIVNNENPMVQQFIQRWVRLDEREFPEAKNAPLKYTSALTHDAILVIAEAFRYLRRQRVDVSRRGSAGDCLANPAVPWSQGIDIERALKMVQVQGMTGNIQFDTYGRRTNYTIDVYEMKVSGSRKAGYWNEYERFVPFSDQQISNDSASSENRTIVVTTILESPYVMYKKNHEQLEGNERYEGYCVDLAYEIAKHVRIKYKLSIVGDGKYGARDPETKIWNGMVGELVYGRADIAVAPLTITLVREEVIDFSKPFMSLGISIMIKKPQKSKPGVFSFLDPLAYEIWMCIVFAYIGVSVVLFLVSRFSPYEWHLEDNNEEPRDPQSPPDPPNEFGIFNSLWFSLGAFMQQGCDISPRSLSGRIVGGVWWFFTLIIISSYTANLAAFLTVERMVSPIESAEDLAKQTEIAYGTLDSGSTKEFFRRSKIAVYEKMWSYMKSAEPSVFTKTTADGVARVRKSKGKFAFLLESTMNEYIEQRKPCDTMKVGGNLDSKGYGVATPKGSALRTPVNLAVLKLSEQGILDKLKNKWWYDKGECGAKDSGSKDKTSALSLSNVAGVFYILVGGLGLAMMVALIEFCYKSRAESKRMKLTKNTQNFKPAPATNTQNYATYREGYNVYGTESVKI
smiles,measurement,setting,value
CCCCCCCCCC(=O)O [decanoic acid],effect on epileptiform activity,[1],completely blocked
same,effect on evoked IPSCs,[2],no significant effect
same,effect on 1/CV^2 for IPSCs,"[2]; versus baseline, n = 6",no effect
same,inhibition at 100 µM,"[3]; 100 µM, read-out: inhibition of AMPA-mediated currents",~20%
same,decrease in AMPA receptor responses,[3]; 1 mM,60–70%
same,AMPA receptor current following activation with AMPA,"[3]; agonist AMPA 30 µM, n = 8",16.7 ± 2.7 % of AMPA alone
same,AMPA receptor currents,"[3]; compound 1 mM, currents elicited by 100 µM L-glutamate, −50 mV",32.4 ± 2.0 % of control
same,IC50,"[3]; glutamate 100 µM, membrane potential −40 mV, n = 6, read-out: IC50",430 ± 90 µM
same,IC50,"[3]; glutamate 100 µM, membrane potential −80 mV, n = 6, read-out: IC50",1110 ± 50 µM
same,IC50,"[3]; glutamate 100 µM, read-out: IC50, inhibition of glutamate-induced AMPA receptor current",520 ± 20 µM
same,IC50,"[3]; glutamate 1 mM, n = 10, read-out: IC50, inhibition of glutamate-induced AMPA receptor current",540 ± 30 µM
